Measurements published in paper PMC12564498, “Benzo[d]imidazole–Naphthalen-Arylmethanone Regioisomers as CB1 Ligands: Evaluation of Agonism via an Indirect Cytotoxicity-Based Approach” (International Journal of Molecular Sciences, 2025).

What follows are molecules tested against T1, human cannabinoid CB1 receptor (Homo sapiens, UniProt P21554) (assay: biochemical). Details: Cheng–Prusoff from IC50, [3H]CP-55940 0.5 nM, mean ± SEM n = 3; read-out: CB1 Ki.
T1 construct: purchased Perkin Elmer Inc., Singapore Pte; Ltd. RBHCB1M400UA; host or cells: HEK293-EBNA cell membranes (overexpressing)
T1 sequence (P21554 whole entry): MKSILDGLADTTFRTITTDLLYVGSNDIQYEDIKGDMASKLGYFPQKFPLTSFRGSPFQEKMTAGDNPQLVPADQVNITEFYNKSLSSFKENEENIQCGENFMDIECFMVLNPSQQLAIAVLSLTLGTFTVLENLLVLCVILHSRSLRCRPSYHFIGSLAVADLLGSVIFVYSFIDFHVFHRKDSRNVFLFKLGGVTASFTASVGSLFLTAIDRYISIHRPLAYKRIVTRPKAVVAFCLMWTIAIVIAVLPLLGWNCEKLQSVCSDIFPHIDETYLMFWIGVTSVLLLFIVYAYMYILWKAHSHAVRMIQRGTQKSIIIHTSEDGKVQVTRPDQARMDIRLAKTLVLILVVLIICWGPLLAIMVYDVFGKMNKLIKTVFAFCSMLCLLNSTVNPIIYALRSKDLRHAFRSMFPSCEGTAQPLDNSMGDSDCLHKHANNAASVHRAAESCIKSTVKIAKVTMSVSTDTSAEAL
Type: binding
For `O=C(c1cccc2ccccc12)n1c(-c2cccnc2)nc2ccc(F)cc21` [5a′, (6-fluoro-2-(pyridin-3-yl)-1H-benzo[d]imidazol-1-yl)(naphthalen-1-yl)methanone], the Ki was over 10 µM. In the case of `O=C(c1cccc2ccccc12)n1c(-c2ccon2)nc2cc(F)ccc21` [Compound 5d, (5-fluoro-2-(isoxazol-3-yl)-1H-benzo[d]imidazol-1-yl)(naphthalen-1-yl)methanone], the Ki is reported as over 10 µM. `Cc1ccc(-c2nc3ccc(Cl)cc3n2C(=O)c2cccc3ccccc23)o1` [4e′] gave a Ki of over 10 µM. Work on `Cc1ccc(-c2nc3cc(Cl)ccc3n2C(=O)c2cccc3ccccc23)o1` [Compound 4e] yielded a Ki of over 10 µM. For `COc1cccc(-c2nc3ccc(F)cc3n2C(=O)c2cccc3ccccc23)c1` [5b′, (6-fluoro-2-(3-methoxyphenyl)-1H-benzo[d]imidazol-1-yl)(naphthalen-1-yl)methanone], the Ki was over 10 µM.

Same assay, conditions: [3H]CP-55940 0.5 nM, hCB1 HEK293-EBNA membranes, mean ± SEM n = 3; read-out: CB1 IC50
In the case of `O=C(c1cccc2ccccc12)n1c(-c2cccnc2)nc2ccc(F)cc21` [5a′, (6-fluoro-2-(pyridin-3-yl)-1H-benzo[d]imidazol-1-yl)(naphthalen-1-yl)methanone], the IC50 is reported as over 10 µM. `O=C(c1cccc2ccccc12)n1c(-c2ccon2)nc2cc(F)ccc21` [Compound 5d, (5-fluoro-2-(isoxazol-3-yl)-1H-benzo[d]imidazol-1-yl)(naphthalen-1-yl)methanone] showed an IC50 of over 10 µM. `Cc1ccc(-c2nc3ccc(Cl)cc3n2C(=O)c2cccc3ccccc23)o1` [4e′] was tested, and the IC50 was over 10 µM. In the case of `Cc1ccc(-c2nc3cc(Cl)ccc3n2C(=O)c2cccc3ccccc23)o1` [Compound 4e], the IC50 is reported as over 10 µM. `COc1cccc(-c2nc3ccc(F)cc3n2C(=O)c2cccc3ccccc23)c1` [5b′, (6-fluoro-2-(3-methoxyphenyl)-1H-benzo[d]imidazol-1-yl)(naphthalen-1-yl)methanone] showed an IC50 of over 10 µM.

Same assay, conditions: displacement of [3H]CP-55940 at 10 μM compound; read-out: CB1 Max Tested µM (% Displacement)
`O=C(c1cccc2ccccc12)n1c(-c2cccnc2)nc2ccc(F)cc21` [5a′, (6-fluoro-2-(pyridin-3-yl)-1H-benzo[d]imidazol-1-yl)(naphthalen-1-yl)methanone] was tested, and the inhibition at 10 µM was 9.5%. Work on `O=C(c1cccc2ccccc12)n1c(-c2ccon2)nc2cc(F)ccc21` [Compound 5d, (5-fluoro-2-(isoxazol-3-yl)-1H-benzo[d]imidazol-1-yl)(naphthalen-1-yl)methanone] yielded an inhibition at 10 µM of 54%. In the case of `Cc1ccc(-c2nc3ccc(Cl)cc3n2C(=O)c2cccc3ccccc23)o1` [4e′], the inhibition at 10 µM is reported as 38%. `Cc1ccc(-c2nc3cc(Cl)ccc3n2C(=O)c2cccc3ccccc23)o1` [Compound 4e] was tested, and the inhibition at 10 µM was 30%. `COc1cccc(-c2nc3ccc(F)cc3n2C(=O)c2cccc3ccccc23)c1` [5b′, (6-fluoro-2-(3-methoxyphenyl)-1H-benzo[d]imidazol-1-yl)(naphthalen-1-yl)methanone] showed an inhibition at 10 µM of 47%.

What follows are molecules tested against T2, human recombinant cannabinoid CB2 receptor (Homo sapiens, UniProt P34972) (assay: CB2 radioligand displacement binding assay ([3H]CP-55940)). Details: Cheng–Prusoff from IC50, [3H]CP-55940 0.5 nM, mean ± SEM n = 3.
T2 construct: purchased Perkin Elmer Inc., Singapore Pte; Ltd. RBXCB2M400UA; host or cells: HEK293-EBNA cell membranes (overexpressing)
T2 sequence (P34972 whole entry): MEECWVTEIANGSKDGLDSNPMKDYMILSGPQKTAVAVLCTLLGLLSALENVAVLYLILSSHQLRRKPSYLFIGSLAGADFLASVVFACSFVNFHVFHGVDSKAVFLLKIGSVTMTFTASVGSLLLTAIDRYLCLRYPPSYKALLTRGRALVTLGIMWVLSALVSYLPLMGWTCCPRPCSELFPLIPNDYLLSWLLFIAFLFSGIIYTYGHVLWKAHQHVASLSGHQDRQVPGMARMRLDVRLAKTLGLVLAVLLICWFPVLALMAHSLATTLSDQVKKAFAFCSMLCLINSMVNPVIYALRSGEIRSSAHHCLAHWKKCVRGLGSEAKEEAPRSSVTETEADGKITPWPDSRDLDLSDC
With `O=C(c1cccc2ccccc12)n1c(-c2cccnc2)nc2ccc(F)cc21` [5a′, (6-fluoro-2-(pyridin-3-yl)-1H-benzo[d]imidazol-1-yl)(naphthalen-1-yl)methanone] the Ki was over 10 µM. `O=C(c1cccc2ccccc12)n1c(-c2ccon2)nc2cc(F)ccc21` [Compound 5d, (5-fluoro-2-(isoxazol-3-yl)-1H-benzo[d]imidazol-1-yl)(naphthalen-1-yl)methanone] showed a Ki of over 10 µM. `Cc1ccc(-c2nc3ccc(Cl)cc3n2C(=O)c2cccc3ccccc23)o1` [4e′] showed a Ki of over 10 µM. `Cc1ccc(-c2nc3cc(Cl)ccc3n2C(=O)c2cccc3ccccc23)o1` [Compound 4e] gave a Ki of over 10 µM. `COc1cccc(-c2nc3ccc(F)cc3n2C(=O)c2cccc3ccccc23)c1` [5b′, (6-fluoro-2-(3-methoxyphenyl)-1H-benzo[d]imidazol-1-yl)(naphthalen-1-yl)methanone] gave a Ki of over 10 µM.

Same assay, conditions: [3H]CP-55940 0.5 nM, hCB2 HEK293-EBNA membranes, mean ± SEM n = 3
With `O=C(c1cccc2ccccc12)n1c(-c2cccnc2)nc2ccc(F)cc21` [5a′, (6-fluoro-2-(pyridin-3-yl)-1H-benzo[d]imidazol-1-yl)(naphthalen-1-yl)methanone] the IC50 was over 10 µM. Work on `O=C(c1cccc2ccccc12)n1c(-c2ccon2)nc2cc(F)ccc21` [Compound 5d, (5-fluoro-2-(isoxazol-3-yl)-1H-benzo[d]imidazol-1-yl)(naphthalen-1-yl)methanone] yielded an IC50 of over 10 µM. `Cc1ccc(-c2nc3ccc(Cl)cc3n2C(=O)c2cccc3ccccc23)o1` [4e′] gave an IC50 of over 10 µM. Molecule `Cc1ccc(-c2nc3cc(Cl)ccc3n2C(=O)c2cccc3ccccc23)o1` [Compound 4e] has an IC50 of over 10 µM. Molecule `COc1cccc(-c2nc3ccc(F)cc3n2C(=O)c2cccc3ccccc23)c1` [5b′, (6-fluoro-2-(3-methoxyphenyl)-1H-benzo[d]imidazol-1-yl)(naphthalen-1-yl)methanone] has an IC50 of over 10 µM.

Same assay, conditions: displacement of [3H]CP-55940 at 10 μM compound; read-out: CB2 Max Tested µM (% Displacement)
Work on `O=C(c1cccc2ccccc12)n1c(-c2cccnc2)nc2ccc(F)cc21` [5a′, (6-fluoro-2-(pyridin-3-yl)-1H-benzo[d]imidazol-1-yl)(naphthalen-1-yl)methanone] yielded an inhibition at 10 µM of 16%. Work on `O=C(c1cccc2ccccc12)n1c(-c2ccon2)nc2cc(F)ccc21` [Compound 5d, (5-fluoro-2-(isoxazol-3-yl)-1H-benzo[d]imidazol-1-yl)(naphthalen-1-yl)methanone] yielded an inhibition at 10 µM of 51%. `Cc1ccc(-c2nc3ccc(Cl)cc3n2C(=O)c2cccc3ccccc23)o1` [4e′] gave an inhibition at 10 µM of 52.8%. `Cc1ccc(-c2nc3cc(Cl)ccc3n2C(=O)c2cccc3ccccc23)o1` [Compound 4e] showed an inhibition at 10 µM of 29%. `COc1cccc(-c2nc3ccc(F)cc3n2C(=O)c2cccc3ccccc23)c1` [5b′, (6-fluoro-2-(3-methoxyphenyl)-1H-benzo[d]imidazol-1-yl)(naphthalen-1-yl)methanone] gave an inhibition at 10 µM of 53.5%.
